Experimental data as given in patent publication US10508104B2, “6-hydroxy-5-(phenyl/heteroarylsulfonyl)pyrimidin-4(1H)-one as APJ agonists” (Bristol-Myers Squibb Company, priority 2016, dated 2019).

Biological target: human APJ receptor (Homo sapiens (Human), UniProt P35414)
Assay: Intracellular cAMP accumulation assay (APJ hcAMP, HTRF)
Assay type: cell-based
Conditions: HEK293 cells stably expressing human APJ receptor; inhibition of forskolin-mediated cAMP production; read-out: Human APJ cAMP EC50 Potency range
Outline: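 HEK293 cells stably expressing human APJ, 5,000 per well, incubated 30 min at rt with compound, […] and 2 μM forskolin. cAMP measured by HTRF against a cAMP standard curve as inhibition of forskolin-driven production. EC50 from variable-slope sigmoidal fit.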

human APJ receptor, sequence (P35414 whole entry): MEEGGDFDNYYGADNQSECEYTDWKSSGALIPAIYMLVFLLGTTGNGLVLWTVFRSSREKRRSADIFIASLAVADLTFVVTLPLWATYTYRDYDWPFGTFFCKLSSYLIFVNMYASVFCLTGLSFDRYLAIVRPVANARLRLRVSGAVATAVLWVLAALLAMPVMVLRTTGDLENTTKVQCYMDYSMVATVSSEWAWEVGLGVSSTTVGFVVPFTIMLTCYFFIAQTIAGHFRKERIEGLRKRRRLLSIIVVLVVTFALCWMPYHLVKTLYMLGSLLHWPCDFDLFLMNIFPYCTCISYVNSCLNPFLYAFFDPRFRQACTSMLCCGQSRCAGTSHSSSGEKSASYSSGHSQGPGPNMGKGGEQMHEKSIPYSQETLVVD

| EC50 [nM] | SMILES |
| --- | --- |
| 0.01 to 10 | N#Cc1cccc([C@H](C2CC2)n2c(CC3CC3)nc(=O)c(S(=O)(=O)c3ccc(-c4ccc(F)cc4C(N)=O)cc3)c2O)c1 [Example 500, 4′-({1-[(S)-(3-cyanophenyl)(cyclopropyl)methyl]-2-(cyclopropylmethyl)-6-hydroxy-4-oxo-1,4-dihydropyrimidin-5-yl}sulfonyl)-4-fluoro-[1,1′-biphenyl]-2-carboxamide] |
| 0.01 to 10 | CCCCc1nc(=O)c(S(=O)(=O)c2ccc(-c3ccccc3C(=O)OC)cc2)c(O)n1[C@@H](CC)c1cccc(C#N)c1 [Example 501, methyl 4′-({2-butyl-1-[(1S)-1-(3-cyanophenyl)propyl]-6-hydroxy-4-oxo-1,4-dihydropyrimidin-5-yl}sulfonyl)-[1,1′-biphenyl]-2-carboxylate] |
| 0.01 to 10 | CC[C@@H](c1cc(F)cc(C#N)c1)n1c(CC2CC2)nc(=O)c(S(=O)(=O)c2ccc(-c3ccccc3C(N)=O)cc2)c1O [Example 502, 4′-({1-[(1S)-1-(3-cyano-5-fluorophenyl)propyl]-2-(cyclopropylmethyl)-6-hydroxy-4-oxo-1,4-dihydropyrimidin-5-yl}sulfonyl)-[1,1′-biphenyl]-2-carboxamide] |
| 0.01 to 10 | CCCCc1nc(=O)c(S(=O)(=O)c2ccc(-c3ccc(F)nc3F)cc2)c(O)n1[C@@H](CC)c1cccc(C#N)c1 [Example 503, 3-[(1S)-1-{2-butyl-5-[4-(2,6-difluoropyridin-3-yl)benzenesulfonyl]-6-hydroxy-4-oxo-1,4-dihydropyrimidin-1-yl}propyl]benzonitrile] |
| 0.01 to 10 | CCCCc1nc(=O)c(S(=O)(=O)c2ccc(-c3cccn(C)c3=O)cc2)c(O)n1[C@@H](CC)c1cccc(C#N)c1 [Example 504, 3-[(1S)-1-{2-butyl-6-hydroxy-5-[4-(1-methyl-2-oxo-1,2-dihydropyridin-3-yl)benzenesulfonyl]-4-oxo-1,4-dihydropyrimidin-1-yl}propyl]benzonitrile] |
| 0.01 to 10 | CCCCc1nc(=O)c(S(=O)(=O)c2ccc(-c3cccnc3F)cc2)c(O)n1[C@@H](CC)c1cccc(C#N)c1 [Example 505, 3-[(1S)-1-{2-butyl-5-[4-(2-fluoropyridin-3-yl)benzenesulfonyl]-6-hydroxy-4-oxo-1,4-dihydropyrimidin-1-yl}propyl]benzonitrile] |
| 0.01 to 10 | CCCCc1nc(=O)c(S(=O)(=O)c2ccc(-c3ccnc(F)c3F)cc2)c(O)n1[C@@H](CC)c1cccc(C#N)c1 [Example 506, 3-[(1S)-1-{2-butyl-5-[4-(2,3-difluoropyridin-4-yl)benzenesulfonyl]-6-hydroxy-4-oxo-1,4-dihydropyrimidin-1-yl}propyl]benzonitrile] |
| 0.01 to 10 | CCCCc1nc(=O)c(S(=O)(=O)c2ccc(-c3ccccc3C(=O)NC)cc2)c(O)n1[C@@H](CC)c1cccc(C#N)c1 [Example 507, 4′-({2-butyl-1-[(1S)-1-(3-cyanophenyl)propy1]-6-hydroxy-4-oxo-1,4-dihydropyrimidin-5-yl}sulfonyl)-N-methyl-[1,1′-biphenyl]-2-carboxamide] |
| 0.01 to 10 | CCCCc1nc(=O)c(S(=O)(=O)c2ccc(-c3cnc(OC)nc3OC)cc2)c(O)n1[C@@H](CC)c1cccc(C#N)c1 [Example 508, 3-[(1S)-1-{2-butyl-5-[4-(2,4-dimethoxypyrimidin-5-yl)benzenesulfonyl]-6-hydroxy-4-oxo-1,4-dihydropyrimidin-1-yl}propyl]benzonitrile] |
| 0.01 to 10 | CCCCc1nc(=O)c(S(=O)(=O)c2ccc(-c3cccnc3C(N)=O)cc2)c(O)n1[C@@H](CC)c1cccc(C#N)c1 [Example 509, 3-[4-({2-butyl-1-[(1S)-1-(3-cyanophenyl)propyl]-6-hydroxy-4-oxo-1,4-dihydropyrimidin-5-yl}sulfonyl)phenyl] pyridine-2-carboxamide] |
| 0.01 to 10 | CCCCc1nc(=O)c(S(=O)(=O)c2ccc(-c3ccnc4[nH]ccc34)cc2)c(O)n1[C@@H](CC)c1cccc(C#N)c1 [Example 510, 3-[(1S)-1-[2-buty1-6-hydroxy-4-oxo-5-(4-{1H-pyrrolo[2,3-b]pyridin-4-yl}benzenesulfonyl)-1,4-dihydropyrimidin-1-yl]propyl]benzonitrile] |
